# Measured values taken from patent publication US8569362B2, “Polyketide molecules as anticancer agents” (Pierre Fabre Medicament, priority 2009, dated 2013).
# Key:
# Type in all cases: cell-based
# [1] = test system: LoVo (colon cancer); assay: Growth inhibition of human cancer cell lines, ATP-lite luminescence, LoVo; conditions: 48 h incubation, cell survival by ATP luminescence
# Experimental: (§1) The cancerous cells [lines A549 (non small cell lung cancer), BxPC3 (cancer of the pancreas), LoVo (colon cancer), MCF7 (breast cancer), Namalwa (Burkitt's lymphoma) and SK-OV-3 (ovarian cancer)] were cultured in a 96-well plate in RPMI 1640 medium without phenol red (Seromed) to which was added 10% of foetal veal serum (100 μl/well, 1 to 3.10^4 cells/ml depending on the considered line). After an incubation of 24 h at 37° C. in an incubator with 5% CO2, the medium was replaced by that containing the compound to be tested (molecule I-1), after which the plates were incubated for an additional 48 h. Cell survival was evaluated by measurement of the luminescence after release of ATP in the medium using the cell lysis solutions, luciferase and luciferine contained in the ATP-lite-MTM kit, as recommended by the manufacturer (Packard, Rungis, France). Each experimental condition was tested at least three times in sextuplets. The table below presents the IC50 data (expressed in M) of the molecule I-1, as a function of the different cell lines tested.
# [2] = test system: Namalwa (Burkitt's lymphoma); assay: Growth inhibition of human cancer cell lines, ATP-lite luminescence, Namalwa; conditions: 48 h incubation, cell survival by ATP luminescence
# Experimental: as §1
# [3] = test system: A549 (non small cell lung cancer); assay: Growth inhibition of human cancer cell lines, ATP-lite luminescence, A549; conditions: A549, 48 h incubation, cell survival by ATP luminescence
# Experimental: as §1
# [4] = test system: SK-OV-3 (ovarian cancer); assay: Growth inhibition of human cancer cell lines, ATP-lite luminescence, SK-OV-3; conditions: SK-OV-3, 48 h incubation, cell survival by ATP luminescence
# Experimental: as §1
# [5] = test system: HeLa tumoral cells (human carcinoma); assay: Cellular phenotype (immunofluorescence and microscopy; α-tubulin, γ-tubulin, DAPI); conditions: 24 h treatment
# Experimental: The HeLa tumoral cells (human carcinoma) were cultured for 24 h on 12 mm diameter glass slides, placed in 24-well culture plates (7.10^3 cells per well).
# The cells were then treated for a new period of 24 h by the molecule I-1 at the tested concentrations. […] The DNA was labelled with DAPI (0.2 μg/ml—15 minutes—37° C.). After the different labellings, the slides were dried and mounted in a Vectashield mounting liquid (AbCys, France), before being observed through an epi-fluorescence microscope (Axiovert 200M; objective×63 Plan Apochromat NA, 1.4; ZEISS, France).
# [6] = test system: MCF7 (breast cancer); assay: Growth inhibition of human cancer cell lines, ATP-lite luminescence, MCF7; conditions: MCF7, 48 h incubation, cell survival by ATP luminescence
# Experimental: as §1
# [7] = test system: BxPC3 (cancer of the pancreas); assay: Growth inhibition of human cancer cell lines, ATP-lite luminescence, BxPC3; conditions: BXPC-3, BxPC3, 48 h incubation, cell survival by ATP luminescence
# Experimental: as §1
compound,measurement,setting,value
COC(CCC(C)C1(O)CC(C(C)/C=C(C)/C=C(\C)C(O)C(C)C(O)C(C)C(OC)C(C)/C=C/C=C/C=C/C(=O)O)OC(=O)C1O)CC(CC(O)C(C)C/C=C/C(C)C1CC(C(C)CCC(C)O)C(O)C(=O)O1)OC (stereo not shown) [molecule I-1],IC50,[1],0.081 nM
same,IC50,[2],1.1 nM
same,IC50,[3],0.82 nM
same,IC50,[4],0.33 nM
same,Centrosomes of interphasic cells (γ-tubulin labelling),[5]; between 5.10^−9M and 5.10^−8M,often separated and normally labelled by γ-tubulin
same,Microtubular cytoskeleton of interphasic cells (labelling by α-tubulin),[5]; between 5.10^−9M and 5.10^−8M,devoid of microtubular cytoskeleton
same,Centrosomes of mitotic cells (γ-tubulin labelling),[5]; between 10^−9M and 5.10^−8M,normally present and labelled by γ-tubulin
same,Mitotic cells: mitotic block and microtubules (α-tubulin labelling),[5]; dose effect between 10^−9M and 5.10^−8M,blocked in prometaphase without microtubules
same,IC50,[6],0.011 nM
same,IC50,[7],0.47 nM
